Data set [1] can be described thus: Hepatic microsomal stability. The data set is classed as in vitro ADME, mouse. The conditions noted are these: for predicted in vivo plasma clearance: from mouse microsomal half-life; for half-life at 1 µM: pooled hepatic microsomes, pH 7.4, mouse. As for the experimental part: Incubations of test compounds (1 µM initial concentration, n = 2) were carried out with pooled hepatic microsomes (0.25 mg protein/mL in 0.1 M phosphate buffer pH 7.4). NADPH (1 mM) was added to initiate the reactions. The incubations were performed at 37°C. Samples (100 µL) were taken from the incubation at 0, 5, 10, 20 and 40 min and added to 100 µL of acetonitrile containing carbamazepine as analytical internal standard, to terminate the reaction. Samples were centrifuged and the supernatant fractions analysed by LC-MS/MS. The instrument responses (i.e. chromatographic peak heights), normalized by internal standard response were referenced to the zero time-point samples (as 100%) in order to determine the percentage of compound remaining.
Ln plots of the % remaining, for each compound, were used to determine the half-life for the microsomal incubations.
Half-life values were calculated from the relationship. [drawing 2] where λ was the slope of the Ln concentration vs time curve.
The in vitro intrinsic clearance, CLint (µL/min/mg microsomal protein), was calculated using the following formula: [drawing 3]
When quantification was required, calibration standards for parent compound and metabolites were prepared in control hepatic microsomes and extracted and analysed as described for the study samples. Quantification of parent compound or metabolite was by extrapolation from the calibration line.

The subject of a further data set is KV channel. Description: Cerep binding, antagonist radioligand. Conditions: 10 μM. An excerpt:
(§1) In addition to the HDAC profiling performed, we also queried 4b for any apparent potential off-target effects, which could complicate any finding of efficacy or adverse events in vivo due to ‘polypharmacy’. This was accomplished by screening against a ‘diversity panel’ of 72 binding and 29 enzyme assays, comprised of roughly equal numbers of selective central and peripheral therapeutically relevant targets (Cerep Diversity Profile). This panel included representative targets from diverse enzyme families, G protein coupled receptors, steroid nuclear receptors, voltage- and ligand-gated ion channels. While not totally inclusive, it is a useful tool for discovery compounds to assess their viability as proof of concept molecules to specifically query a particular target. 4b was initially screened at 10 µM in duplicate. The full set of results is provided as Table S1. […] This clean in vitro profile was considered acceptable to proceed to ADME and pharmacokinetic studies.

Another data set relates to I2. As to the kind of experiment: Cerep binding, antagonist radioligand. Conditions: 10 μM.
From the text: as §1

In data set [2] the test system is endogenous Class I HDACs/HDAC6. As to the kind of experiment: Cellular HDAC assay, Boc_Lys_Ac substrate, Jurkat E6.1 cells. The data set is classed as cell-based. As for the experimental part: Briefly, Jurkat E6.1 cells (obtained from the European Collection of Cell Cultures (ECACC)) were plated into 384 well plates at 75,000 cells/well in cellular assay buffer (RPMI without phenol red, 0.1% Fetal Bovine Serum, 10 mM HEPES, 1 mM Sodium Pyruvate). […] Fluorescent counts were read the following morning on the Perkin Elmer EnVision.
Each compound was tested in duplicate in concentration-response format on 3 separate days. […] A full dose response of reference compound was always included alongside the profiling, to ensure that assay parameters remained within acceptable limits.

Another data set deals with T1, CCK1 (CCKA) (h) (Homo sapiens, UniProt P32238).
T1 construct: Cerep
T1 sequence (P32238 1-428): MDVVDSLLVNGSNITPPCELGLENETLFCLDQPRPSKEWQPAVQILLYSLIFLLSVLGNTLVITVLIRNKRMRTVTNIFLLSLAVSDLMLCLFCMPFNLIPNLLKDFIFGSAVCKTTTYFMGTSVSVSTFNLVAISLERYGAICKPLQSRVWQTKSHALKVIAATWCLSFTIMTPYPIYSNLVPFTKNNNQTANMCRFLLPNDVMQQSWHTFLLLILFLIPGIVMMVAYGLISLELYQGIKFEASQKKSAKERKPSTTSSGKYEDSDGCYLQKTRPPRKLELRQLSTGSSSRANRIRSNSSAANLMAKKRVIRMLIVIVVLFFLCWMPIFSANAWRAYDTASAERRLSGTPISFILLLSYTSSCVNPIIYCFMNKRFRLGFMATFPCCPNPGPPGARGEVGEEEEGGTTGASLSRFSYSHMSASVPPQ
Description: Cerep binding, agonist radioligand (CCK-8S). Conditions: for inhibition at 10 µM: read-out: % inhibition of control specific binding.
From the text: as §1
Supplementary file pone.0044498.s001.tif: Figure S1 Displacement of CCK-8S (agonist radioligand) from the CCK1 receptor by 4b and C1. (TIF) Click here for additional data file.

Data set [3] is described as follows: Solubility in water, formulations and DMSO. The data set is classed as physicochemical. As to the method:
Thomas and colleagues reported that a solution of 4b at 1 mg/mL was previously obtained using this procedure. […] We therefore prepared both TFA and hydrochloride (HCl) salts of 4b to establish whether they could offer improved solubility. Neither salt form of 4b was particularly soluble in water (<1 mg/ml). […] A study of the stability of the TFA salt also raised another more worrying issue in the use of 2-hydroxypropyl-β-cyclodextrin–complexed 4b salts for potential in vivo studies. […] The 4b. TFA cyclodextrin suspension targeted at 1 mg/ml with heating gave an initial (day 1) measured value of 0.75 mg/ml total 4b, with only 0.27 mg/mL solubilised as quantified in the sample after filtration. The lower than expected initial quantification of 4b was most likely due to the TFA salt rapidly degrading upon heating. Indeed, we always found the presence of the cyclised benzimidazole conversion product, named throughout as product C1, in the salt formulations even at t = 0 after preparation. Furthermore, the suspension was not stable upon standing in the dark with gentle shaking at room temperature, with a further 28% decrease observed in parent (4b) concentration on day 7 analysis, compared to day 1.
As a consequence de novo formulation attempts were made with the stable free base form. After several trials with different excipients, we were able to reach a soluble formulation preparation of 1 mg/ml 4b in 2% N-methyl-2-pyrollidone, 18% polyethylene glycol 400, 10% solutol HS-15 and 70% (1% Lutrol F68 in water), a vehicle which we have previously used without any adverse effects in R6/2 model chronic efficacy trials, but is unlikely to be palatable to mice in drinking water. With this concentration, a single oral gavage dose will result in a maximum of 10 mg/kg dose level (assuming a maximum dose volume of […]), considerably lower than that estimated to have been used by Thomas et al (150 mg/kg day in drinking water). In an attempt to replicate the original dose level as close as possible, it became necessary to formulate the test compound in suspension. We achieved a stable homogeneous suspension of free base 4b up to 100 mg/ml in 0.5% carboxymethylcellulose (medium viscosity) in reverse osmosis deionized (RODI) water. This suspension was used to evaluate the oral pharmacokinetics of 4b in mice. […]

Setting [4] is: mouse, 1 µM, with NADPH, read-out: in vitro half-life in hepatic microsomes.

In brackets after ≈: the same amount, converted by molar mass. Where two headings read alike, the source gives them in different places.

A word on the half-life: it is the time in which the quantity being followed falls by half. Usually inhibition stands for the percentage by which the read-out fell short of the control. For orientation: IC50 means the concentration that gives 50% inhibition. Broadly, the Ki is the dissociation constant of the complex between target and ligand, obtained from inhibition or displacement. A higher Ki goes with weaker binding.

For the compound `O=C(CCCCCc1nc2ccccc2[nH]1)Nc1ccccc1` [Compound C1, 6-(1-H-benzo[d]imidazol-2-yl)-N-phenylhexanamide], the “concentration of C1 in incubations with 4b” value in data set [1] (all incubations with 4b, below the limit of quantification) is less than 100 nM. The “predicted in vivo plasma clearance” value in data set [1] was more than 48.2 mL/min/kg. Also, the half-life at 1 µM was less than 5 min in data set [1] (setting [4]) and 7 min in data set [1] (mouse, without NADPH, read-out: in vitro half-life in liver microsomes). Also, the figures for the “% inhibition of control specific binding” value in the data set on KV channel and in the data set on I2 were 3% and 73%, respectively. The “activity in the Class I cellular HDAC (Boc_Lys_Ac) assay” value in data set [2] (up to 50 µM, 5 h incubation) is “no activity”. Also, at CCK1 (CCKA) (h), the inhibition at 10 µM turned out to be 68%. In addition, on CCK1 (CCKA) (h) (read-out: IC50, displacement of CCK1 agonist radioligand binding), the IC50 stood at 6.1 µM. Besides, the “solubility in aqueous media” value in data set [3] is reported as “readily soluble”.
`Nc1ccccc1NC(=O)CCCCCC(=O)Nc1ccccc1` [Compound 4b]: in data set [1] (after 40 min incubation with mouse hepatic microsomes), the parent remaining was found to be 16%. The “predicted in vivo plasma clearance” value in data set [1] was 43.3 mL/min/kg. For the same compound, the “predicted clearance as share of liver plasma flow” value in data set [1] (mouse) is given as “approximately 87%”. For the same compound, in data set [1] (setting [4]), the half-life at 1 µM is approximately 20 min. In addition, the “% inhibition of control specific binding” value in the data set with KV channel is given as 2%; with I2 it was 5%. In addition, the half-maximal inhibitory concentration (IC50) in data set [2] (24 h pre-incubation with cells (maximal), read-out: cellular IC50, Boc_Lys_Ac substrate ('Class I' HDAC inhibition)) is 1.8 µM; in data set [2] (Jurkat E6.1, standard protocol, total incubation time 5 h, read-out: cellular IC50, Boc_Lys_Ac substrate (Class I inhibition)) it was 5.3 µM; in data set [2] (dilution prepared 21 h previously in DMSO or aqueous buffer, no pre-incubation with cells, read-out: cellular IC50, Boc_Lys_Ac substrate), 15 µM; in data set [2] (freshly prepared compound dilution, no pre-incubation with cells, read-out: cellular IC50, Boc_Lys_Ac substrate), 16 µM; in data set [2] (no pre-incubation with cells, read-out: cellular IC50, Boc_Lys_Ac substrate) it was 16 µM. Besides, the inhibition at 10 µM on CCK1 (CCKA) (h) was 72%. This compound also showed an inhibition constant Ki on CCK1 (CCKA) (h) (follow up concentration-effect curve) of 8.6 µM. Further, in data set [3] (NMP/PEG400/Solutol HS-15/Lutrol F68 aqueous vehicle, aqueous with cosolvent or surfactant or cyclodextrin, free base, 2% N-methyl-2-pyrollidone, 18% polyethylene glycol 400, 10% solutol HS-15, 70% (1% Lutrol F68 in water), read-out: soluble formulation concentration), the solubility amounted to 1000 µg/mL (≈ 3.07 mM). In data set [3] (free base, 2-hydroxypropyl-β-cyclodextrin 1∶5 molar ratio, target 1 mg/mL), the “4b dissolved (filtrate of suspension)” value is 0.1 mg/mL. In data set [3] (neutral pH, free base), the solubility in water result was “highly insoluble”. In data set [3] (prepared at 1 mg/ml), the “solubility in DMSO” value was “soluble”.

The values are drawn from article PMC3433414, “Oral Administration of the Pimelic Diphenylamide HDAC Inhibitor HDACi 4b Is Unsuitable for Chronic Inhibition of HDAC Activity in the CNS In Vivo” (PLoS ONE, 2012).
